How the values were obtained:
Type in all cases: cell-based
[1] = tested on: multi-species biofilm (beneficial/commensal species, periodontal pathogens, cariogenic pathogens); assay: Multi-species biofilm composition, relative proportions and group changes
Summary of the method: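 Multi-species biofilms grown 24 h on calcium-deficient hydroxyapatite disks in the Amsterdam Active Adhesion model. Then rinsed 3 times daily for 3 min (RT, 250 rpm) over 3 days with 1 M NADG, α-D-lactose, D-(+)-trehalose or D-(+)-raffinose; PBS pH 5.7 without substrate as control. Species abundance given as mean ± SD (n = 3) log genome equivalents per mL.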

[2] = tested on: human oral keratinocytes (HOK-18A); assay: IL-8 levels in supernatant of keratinocytes exposed to substrate-treated biofilms; conditions: biofilms treated with substrate 1 M; n = 3
Procedure: Cultures of immortalized human oral keratinocytes (HOK-18A) are grown. […] The IL-8 levels in the cellular supernatant are determined as well. RNA is converted to cDNA and relative expression of inflammatory mediator genes is determined as described above with respect to the cellular housekeeping gene β-actin.

[3] = tested on: P. intermedia virulence genes; assay: Virulence gene expression in multi-species biofilm (SYBR RT-qPCR); conditions: relative to control = 1
Summary of the method: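 Multi-species biofilms grown 24 h on CAD-HA disks (37° C., microaerophilic), then rinsed 3×/day for 3 min over 3 days with substrate at 1 M or 1% (w/v) in PBS; PBS pH 5.7 as control. Expression of 33 genes by SYBR RT-qPCR, normalized to housekeeping genes; fold change by 2^-ΔΔCt, geometric mean (95% C.I.), n = 3.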

[4] = tested on: human oral keratinocytes (HOK-18A); assay: Inflammatory mediator gene expression in keratinocytes exposed to substrate-treated biofilms (SYBR RT-qPCR); conditions: for fold change in IL-1β gene expression, geometric mean (C.I.) / fold change in IL-6 gene expression, geometric mean (C.I.) / fold change in IL-8 gene expression, geometric mean (C.I.) / fold change in MMP-8 gene expression, geometric mean (C.I.) / fold change in TNF-α gene expression, geometric mean (C.I.): relative to control, n = 3
Summary of the method: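 HOK-18A keratinocytes were exposed to multi-species biofilms treated with substrates dissolved in PBS at 1 M or 1% (w/v). Inflammatory mediator expression was measured by SYBR RT-qPCR against β-actin, with fold change versus control by 2^-ΔΔCt, reported as geometric mean (n = 3).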

S. mutans = assay: Multi-species biofilm composition, absolute abundance (Geq/mL); conditions: repeated rinsing
S. salivarius = assay: as above; conditions: repeated rinsing
S. sanguinis = assay: as above; conditions: repeated rinsing
Summary of the method: (§1)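 CAD-HA disk biofilms, 24 h, 37° C., 170 rpm, 6% O2, 7% CO2. Rinses: 1 M substrate, 3 min, 3×/d, 3 d, RT, 250 rpm; ctrl PBS pH 5.7. Log(Geq/mL), n = 3.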

A. viscosus = assay: as above; conditions: repeated rinsing
V. parvula = assay: as above; conditions: for absolute abundance of V. parvula (VP), mean ± SD log (Geq/mL): repeated rinsing
F. nucleatum = assay: as above; conditions: repeated rinsing
Summary of the method: as §1

[5] = Table 1a, substrate 1 M, listed as α-D-lactose
[6] = Table 3, separate experiments, concentration not given
[7] = lower part of Table 6d, head prints 1 M (lower part 1%(w/v))
[8] = upper part of Table 6d, substrate 1 M, n = 3
[9] = HOK-18A exposed to biofilms treated with substrate 1% (w/v)
[10] = HOK-18A exposed to biofilms treated with substrate 1 M

OC[C@H]1O[C@@H](O[C@H]2[C@H](O)[C@@H](O)[C@@H](O)O[C@@H]2CO)[C@H](O)[C@@H](O)[C@H]1O [D-lactose, α-D-lactose]
relative proportion of beneficial or commensal species in biofilm ([1]; Table 1a, substrate 1 M): 92.72 (+/- 4.39)^∗ % (Geq/mL)
relative proportion of cariogenic pathogens in biofilm ([1]; Table 1a, substrate 1 M): 5.82 (+/- 3.94) % (Geq/mL)
relative proportion of periodontal pathogens in biofilm ([1]; Table 1a, substrate 1 M): 1.46 (+/- 0.64)^∗ % (Geq/mL)
relative proportion of beneficial or commensal species in biofilm [1, 5]: 92.72±4.39 % (Geq/mL)
relative proportion of cariogenic pathogens in biofilm [1, 5]: 5.82±3.94 % (Geq/mL)
relative proportion of periodontal pathogens in biofilm [1, 5]: 1.46±0.64 % (Geq/mL)
relative proportion of beneficials/commensals in biofilm [1, 6]: 64.14 (+/- 9.81) % (Geq/mL)
relative proportion of cariogenic pathogens in biofilm [1, 6]: 0.21 (+/- 0.08) % (Geq/mL)
relative proportion of periodontal pathogens in biofilm [1, 6]: 35.65 (+/- 9.88) % (Geq/mL)
Mean ± SD IL-8 levels in HOK-18A supernatant [2]: < LOD^∗
fold change in DnaJ expression, geometric mean (95% C.I.) [3, 7]: 0.29 (0.18-0.47)^∗ fold
fold change in DnaK expression, geometric mean (95% C.I.) [3, 7]: 1.16 (0.55-2.44) fold
fold change in ECF expression, geometric mean (95% C.I.) [3, 7]: 0.26 (0.12-0.58)^∗ fold
fold change in GroES expression, geometric mean (95% C.I.) [3, 7]: 0.91 (0.41-2.03) fold
fold change in HtpG expression, geometric mean (95% C.I.) [3, 7]: 0.40 (0.15-1.07)^∗ fold
fold change in KpsD expression, geometric mean (95% C.I.) [3, 7]: 0.72 (0.39-1.35) fold
fold change in adpc expression, geometric mean (95% C.I.) [3, 7]: 0.41 (0.30-0.55) fold
fold change in clpB expression, geometric mean (95% C.I.) [3, 7]: 0.85 (0.23-3.13) fold
fold change in inpA expression, geometric mean (95% C.I.) [3, 7]: 0.52 (0.41-0.66)^∗ fold
fold change in phg expression, geometric mean (95% C.I.) [3, 7]: 0.39 (0.19-0.77)^∗ fold
fold change in DnaJ expression, geometric mean (95% C.I.) [3, 8]: 0.25 (0.05-1.25)^∗ fold
fold change in DnaK expression, geometric mean (95% C.I.) [3, 8]: 0.34 (0.28-0.42)^∗ fold
fold change in ECF expression, geometric mean (95% C.I.) [3, 8]: 1.72 (0.56-5.25) fold
fold change in GroES expression, geometric mean (95% C.I.) [3, 8]: 0.29 (0.09-0.91)^∗ fold
fold change in HtpG expression, geometric mean (95% C.I.) [3, 8]: 0.19 (0.12-0.31)^∗ fold
fold change in KpsD expression, geometric mean (95% C.I.) [3, 8]: 0.62 (0.21-1.87) fold
fold change in adpc expression, geometric mean (95% C.I.) [3, 8]: 0.30 (0.23-0.39)^∗ fold
fold change in clpB expression, geometric mean (95% C.I.) [3, 8]: 0.38 (0.08-1.75)^∗ fold
fold change in inpA expression, geometric mean (95% C.I.) [3, 8]: 0.47 (0.27-0.82)^∗ fold
fold change in phg expression, geometric mean (95% C.I.) [3, 8]: 0.12 (0.08-0.18)^∗ fold
fold change in IL-1β gene expression, geometric mean (C.I.) [4, 9]: 0.89 (0.54-1.45) fold
fold change in IL-6 gene expression, geometric mean (C.I.) [4, 9]: 0.74 (0.56-0.97)^∗ fold
fold change in IL-8 gene expression, geometric mean (C.I.) [4, 9]: 1.13 (0.71-1.80) fold
fold change in MMP-8 gene expression, geometric mean (C.I.) [4, 9]: 0.70 (0.62-0.79) fold
fold change in TNF-α gene expression, geometric mean (C.I.) [4, 9]: 0.81 (0.50-1.33) fold
fold change in IL-1β gene expression, geometric mean (C.I.) [4, 10]: 0.5 (0.38-0.65)^∗ fold
fold change in IL-6 gene expression, geometric mean (C.I.) [4, 10]: 0.33 (0.12-0.88)^∗ fold
fold change in IL-8 gene expression, geometric mean (C.I.) [4, 10]: 0.03 (0.02-0.05)^∗ fold
fold change in MMP-8 gene expression, geometric mean (C.I.) [4, 10]: 0.78 (0.38-1.61) fold
fold change in TNF-α gene expression, geometric mean (C.I.) [4, 10]: 0.39 (0.23-0.66)^∗ fold
downregulation of IL-1β gene expression ([4]; substrate 1 M): 2 fold
downregulation of IL-6 gene expression ([4]; substrate 1 M): 3 fold
downregulation of TNF-α gene expression ([4]; substrate 1 M): 2.5 fold
absolute abundance of S. mutans, mean ± SD log (Geq/mL) (S. mutans; substrate 1% (w/v)): 7.48 ± 0.14 log (Geq/mL)
absolute abundance of S. mutans, mean ± SD log (Geq/mL) (S. mutans; substrate 1 M in PBS, n = 3): 8.00 ± 0.56 log (Geq/mL)
absolute abundance of S. salivarius, mean ± SD log (Geq/mL) (S. salivarius; substrate 1% (w/v)): 2.65 ± 0.00 log (Geq/mL)
absolute abundance of S. salivarius, mean ± SD log (Geq/mL) (S. salivarius; substrate 1 M in PBS, n = 3): 6.95 ± 0.14^∗ log (Geq/mL)
absolute abundance of S. sanguinis, mean ± SD log (Geq/mL) (S. sanguinis; substrate 1% (w/v)): 8.99 ± 0.54 log (Geq/mL)
absolute abundance of S. sanguinis, mean ± SD log (Geq/mL) (S. sanguinis; substrate 1 M in PBS, n = 3): 5.80 ± 1.09 log (Geq/mL)
absolute abundance of A. viscosus (Av), mean ± SD log (Geq/mL) (A. viscosus; substrate 1% (w/v)): 7.89 ± 0.13 log (Geq/mL)
absolute abundance of A. viscosus (Av), mean ± SD log (Geq/mL) (A. viscosus; substrate 1 M in PBS, n = 3): 6.78 ± 0.41 log (Geq/mL)
absolute abundance of V. parvula (VP), mean ± SD log (Geq/mL) (V. parvula; substrate 1% (w/v)): 9.92 ± 0.20 log (Geq/mL)
reduction of V. parvula numbers in comparison to the control (V. parvula; substrate 1 M): ~ 0.7 log(Geq/mL)
absolute abundance of V. parvula (VP), mean ± SD log (Geq/mL) (V. parvula; substrate 1 M in PBS, n = 3): 9.45 ± 0.15^∗ log (Geq/mL)
absolute abundance of F. nucleatum (Fn), mean ± SD log (Geq/mL) (F. nucleatum; substrate 1% (w/v)): 9.39 ± 0.42 log (Geq/mL)
absolute abundance of F. nucleatum (Fn), mean ± SD log (Geq/mL) (F. nucleatum; substrate 1 M in PBS, n = 3): 5.49 ± 0.46^∗ log (Geq/mL)
